Reference: patent publication US20120079612A1, “Dry eye animal model” (West Virginia University, priority 2010, published 2012)

Experiments:
female rats [1] = assay: Tear volume, modified Schirmer's test; type: in vivo, Sprague-Dawley rats
Method: (§1) Female rats of 9 months of age were ovariectomized and immediately supplemented with 1.5 mg of 17β-estradiol in three, separate 90-day time release pellets until 18 months. Three experimental groups were used with ovaries excised from rats in treatment […] (FIG. 1). Group 1 underwent a sham ovariectomy and was implanted with placebo pellet, Group 2 underwent an ovariectomy and was implanted with placebo pellet, and Group 3 underwent an ovariectomy and was implanted with E2 pellet. The three groups had tear breakup time and tear volume tested. […] The time lapse between the last blink and the first randomly distributed dry spot on the cornea using a portable slit lamp was recorded. The process was repeated 3 times for each subject and the results recorded (FIG. 2). […] Rats received 0.5 uL Fluress onto the eye, then the eye was manually blinked 3 times, and the modified Schirmer's strip was placed in the upper fornix for 5 minutes for assessment of tear volume and the volume was recorded (FIG. 3).
(§2) Female Sprague-Dawley rats, age 15 months, were subcutaneously implanted with placebo pellets and E2 rats received pellets containing 1.5 mg of 17β-estradiol in a 90-day time-release matrix. […] Serum E2 levels were measured from blood collected prior to randomization to treatment groups and again at time of euthanasia. […]

female rats [2] = assay: Tear breakup time (TBUT), Fluress and slit lamp; type: in vivo, Sprague-Dawley rats
Method: as §1, §2

Serum E2 levels = type: in vivo, Sprague-Dawley rats; conditions: Example 2: rats at 18 months after 1.5 mg 90-day pellet implanted at 15 months; compared to Intact (placebo) rats
Method: Female Sprague-Dawley rats, age 15 months, were subcutaneously implanted with placebo pellets and E2 rats received pellets containing 1.5 mg of 17β-estradiol in a 90-day time-release matrix. Both groups received treatment until they reached 18 months of age. Serum E2 levels were measured from blood collected prior to randomization to treatment groups and again at time of euthanasia. […] Serum E2 levels of rats prior to randomization at 15 months of age (Pre) and two weeks before gland excision, at 18 months of age (Post). […] Also, Tear Volume Assessment and Tear Break-up Time both have been examined in the rats. […] TBUT was also altered by estrogen treatment with E2 rats having a significant reduction in time to first tear disruption compared to Intact rats (16.4±1.1 sec and 33.7±1.9 sec, respectively; p<0.001) (FIG. 5). Tear volume was measured in 18 month old female rats during 3 months of E2 or placebo supplementation. […] (B) Tear break up time was also measured in rats receiving placebo or E2 treatment using fluorescein sodium (0.25%).

women = conditions: compared to non-treated women of the same age, the estrogen-alone figure is for women with prior hysterectomy; cited from earlier work
[3] = Example 1: rats ovariectomized at 9 months, 1.5 mg 17β-estradiol 90-day pellets until 18 months, compared to control groups 1 and 2
[4] = Example 2: post-menopausal rats at 18 months, 3 months of E2 supplementation, p<0.001 vs Intact rats

Which results are given for C[C@]12CC[C@@H]3c4ccc(O)cc4CC[C@H]3[C@@H]1CC[C@@H]2O [E2, 17β-estradiol]?
tear volume (female rats [1]; [3]): reduced tear volume; tear volume (female rats [1]; [4]): 7.4±0.58 mm; tear break up time (female rats [2]; [3]): shorter tear break up time; TBUT, time to first tear disruption (female rats [2]; [4]): 16.4 ± 1.1 s; serum E2 levels (Serum E2 levels): significantly elevated

For estrogen, which “increase of KCS” value (women) is on record?
Its value is about 70%.
